Measurements as given in patent US20240174618A1, “SUBSTITUTED (2-HETEROARYLOXYPHENYL)SULFONATES, SALTS THEREOF AND THEIR USE AS HERBICIDAL AGENTS” (Bayer Aktiengesellschaft, priority 2021, published 2024).

Legend:
Format in all cases: in vivo
Lolium rigidum (LOLRI) = assay: A. Herbicidal pre-emergence efficacy, LOLRI
Summary of the method: (§1)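 Pre-emergence soil-surface spray in sandy loam pots, WP/EC in water plus 0.5% additive, 600 L/ha. Visual % damage rating after about 3 weeks in greenhouse vs. untreated; 0% = control-like, 100% = dead plants. Rates up to 1280 g/ha.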

Setaria viridis (SETVI) = assay: A. Herbicidal pre-emergence efficacy, SETVI
Summary of the method: as §1

Veronica persica (VERPE) = assay: A. Herbicidal pre-emergence efficacy, VERPE; settings: for Pre-emergence efficacy against VERPE: dosage 80 g/ha
Summary of the method: as §1

[1] = test system: Amaranthus retroflexus (AMARE); assay: B. Herbicidal post-emergence efficacy, AMARE
Summary of the method: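 Post-emergence greenhouse test: one-leaf-stage plants, compound (WP/EC, +0.5% additive, 600 L/ha water, ≤1280 g/ha) applied to green parts; % efficacy scored visually vs untreated after ~3 wk; 100% = plants died.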

[2] = test system: Polygonum convolvulus (POLCO); assay: C. Herbicidal pre-emergence efficacy, POLCO; settings: scored after about 3 weeks
Description: Seeds of monocotyledonous and dicotyledonous weed plants and crop plants were placed in plastic or organic planting pots and covered with soil. The compounds of the invention, formulated in the form of wettable powders (WP) or as emulsion concentrates (EC), were then applied to the surface of the covering soil as aqueous suspension or emulsion with addition of 0.5% additive at a water application rate equivalent to 600 l/ha (converted). After the treatment, the pots were placed in a greenhouse and kept under good growth conditions for the test plants. After about 3 weeks, the efficacy of the preparations was scored visually in comparison with untreated controls as percentages. For example, • 100% efficacy=plants have died, • 0% efficacy=like untreated control plants.
Tables C1a to C14b below show the effects of selected compounds of the general formula (I) according to table 1 on various harmful plants at an application rate corresponding to 320 g/ha or less, which were obtained by the experimental procedure mentioned above.

[3] = test system: Pharbitis purpurea (PHBPU); assay: E. Herbicidal post-emergence efficacy, PHBPU
Summary of the method: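 Greenhouse weeds were treated post-emergence at the one-leaf stage, 2-3 weeks after sowing in sandy loam, with WP or EC formulations sprayed as aqueous suspension/emulsion plus 0.5% additive at 600 l/ha, at 320 g/ha or less. Efficacy was rated visually after about 3 weeks versus untreated controls (100% = dead, 0% = like control).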

[4] = test system: Triticum aestivum (TRZAS); assay: F. Post-emergence effect on useful plants, TRZAS; settings: useful plant
Summary of the method: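 Crop plants grown in sandy loam in the greenhouse were sprayed at the one-leaf stage, 2-3 weeks after sowing, with WP or EC formulations plus 0.5% additive at 600 l/ha water. Damage was scored visually after about 3 weeks against untreated controls (0% = like control, 100% = dead).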

Compound	Pre-emergence efficacy against LOLRI (Lolium rigidum (LOLRI); dosage 320 g/ha) [%]	Pre-emergence efficacy against LOLRI (Lolium rigidum (LOLRI); dosage 1280 g/ha) [%]	Pre-emergence efficacy against SETVI (Setaria viridis (SETVI); dosage 80 g/ha) [%]	Pre-emergence efficacy against SETVI (Setaria viridis (SETVI); dosage 320 g/ha) [%]	Pre-emergence efficacy against SETVI (Setaria viridis (SETVI); dosage 1280 g/ha) [%]	Pre-emergence efficacy against VERPE in % (Veronica persica (VERPE); 320 g/ha) [%]	Pre-emergence efficacy against VERPE in % (Veronica persica (VERPE); 1280 g/ha) [%]	Post-emergence efficacy against AMARE ([1]; 320 g/ha) [%]	Post-emergence efficacy against AMARE ([1]; 1280 g/ha) [%]	Post-emergence efficacy against AMARE ([1]; 80 g/ha) [%]	Pre-emergence efficacy against POLCO ([2]; 320 g/ha) [%]	Post-emergence efficacy against PHBPU in % ([3]; application rate 320 g/ha) [%]	Post-emergence efficacy against TRZAS in % ([4]; application rate 80 g/ha) [%]	Post-emergence efficacy against TRZAS in % ([4]; application rate 320 g/ha) [%]	Pre-emergence efficacy against VERPE (Veronica persica (VERPE)) [%]	Pre-emergence efficacy against POLCO ([2]; 80 g/ha) [%]	Post-emergence efficacy against PHBPU in % ([3]; application rate 80 g/ha) [%]
Cc1cccc(Oc2ncc(Cl)cn2)c1OS(=O)(=O)CCCC(F)(F)F [Example I-28, 2-[(5-Chloropyrimidin-2-yl)oxy]-6-methylphenyl 4,4,4-trifluorobutane-1-sulfonate]	90	100	100	100	100	100	100	90	100	–	–	–	–	–	–	–	–
CCCCCS(=O)(=O)Oc1ccccc1Oc1ncc(Cl)cn1 [Example I-24]	–	100	–	100	100	–	–	100	100	90	80	80	0	0	–	–	–
CCS(=O)(=O)Oc1ccccc1Oc1ncc(Cl)cn1 [Example I-16]	–	90	–	100	100	90	100	100	100	100	–	–	–	–	–	–	–
O=S(=O)(CCCCl)Oc1ccccc1Oc1ncc(F)cn1 [Example I-5]	–	–	100	100	100	100	100	100	100	100	100	80	20	–	90	90	–
O=S(=O)(CCCCl)Oc1c(F)cccc1Oc1ncc(Cl)cn1 [Example I-14]	100	100	100	100	100	100	100	100	100	100	100	100	20	–	100	90	100
CC(C)CCS(=O)(=O)Oc1ccccc1Oc1ncc(Cl)cn1 [Example I-25]	90	100	–	100	100	–	90	100	100	90	90	90	0	0	–	80	80
O=S(=O)(CCCCCl)Oc1ccccc1Oc1ncc(Cl)cn1 [Example I-15]	–	90	100	100	100	90	90	100	100	100	100	100	–	–	–	80	90
